This is an account of results in US6239128A, “Indole-2,3-dione-3-oxime derivatives for therapeutic use” (Neurosearch A/S, priority 1998, dated 2001).

The structures appear in SMILES notation.

For this experiment, the target named is AMPA receptor. Kind of experiment: in vitro receptor affinity test: inhibition of specific binding of ^3 H-AMPA. Details: species or system male Wistar rats (cerebral cortex). The settings on record: rat cerebral cortex membranes; ^3 H-AMPA 5 nM; 30 minutes at 2° C.; 30 mM Tris-HCl, 2.5 mM CaCl2, 100 mM KSCN, pH 7.4; read-out: IC50 (the concentration (μM) of the test substance which inhibits the specific binding of ^3 H-AMPA by 50%). An excerpt:
In an in vitro activity (receptor affinity) test, the chemical compounds of the present invention have been tested for their affinity for the AMPA receptor.
L-glutamate (GLU) is the major excitatory neurotransmitter in the mammalian central nervous system. From electro-physiological- and binding studies, there appear to be at least three subtypes of GLU receptors, tentatively named N-methyl-D-aspartate (NMDA) receptors, quisqualate receptors and kainate receptors. AMPA has been known for several years to be a potent and selective agonist at the traditionally named quisqualate receptors. Activation of quisqualate receptors by AMPA is associated with Na^+ influx and K^+ efflux leading to depolarisation. ^3 H-AMPA is a selective radioligand for labelling the ionotropic quisqualate (AMPA) receptors.
Preparations are performed at 0-4° C. unless otherwise indicated. Cerebral cortex from male Wistar rats (150-200 g) is homogenised for 5-10 sec in 20 ml Tris-HCl (30 mM, pH 7.4) using an Ultra-Turrax™ homogeniser. The suspension is centrifuged at 27,000×g for 15 minutes and the pellet is washed three times with buffer (centrifuged at 27,000×g for 10 minutes). The washed pellet is homogenised in 20 ml of buffer and incubated on a water bath (of 37° C) for 30 minutes to remove endogenous glutamate and then centrifuged for 10 minutes at 27,000×g. The pellet is then homogenised in buffer and centrifuged at for 10 minutes at 27,000×g. The final pellet is resuspended in 30 ml buffer and the preparation is frozen and stored at -20° C.
The membrane preparation is thawed and centrifuged at 2° C. for 10 minutes at 27,000×g. […] Non-specific binding is determined using L-glutamate (0.6 mM, final concentration).
After incubation the 550 μl samples are added 5 ml of ice-cold buffer and poured directly onto Whatman™ GF/C glass fibre filters under suction and immediately washed with 5 ml of ice-cold buffer. […] The amount of radioactivity on the filters is determined by conventional liquid scintillation counting. […]
Take `CN1CCc2c(-c3ccc(S(=O)(=O)N(C)C)cc3)cc3c(c2C1)NC(=O)C3=NOC(CCO)C(=O)O` (stereo not drawn) [8-methyl-5-(4-(N,N-dimethylsulfamoyl)phenyl)-6-7-8-9-tetrahydro-1H-pyrrolo[3,2-h]isoquinoline-2,3-dione-3-O-(4-hydroxybutyric acid-2-yl)oxime]: the IC50 amounted to 0.05 µM.

Consider `CCOC(=O)CON=C1C(=O)Nc2c1cc(-c1ccc(S(=O)(=O)N(C)C)cc1)c1c2CN(C)CC1` [8-methyl-5-(4-(N,N-dimethylsulphamoyl)phenyl-6,7,8,9-tetrahydro-1H-pyrrolo[3,2-h]isoquinoline-2,3-dione-3-O-(ethoxycarbonylmethyl)oxime], for which the IC50 was found to be 0.1 µM.

Turning to `CN1CCc2c(-c3ccc(S(=O)(=O)N(C)C)cc3)cc3c(c2C1)NC(=O)C3=NOC1CCOC1=O` (stereo not drawn) [8-methyl-5-(4-(N,N-dimethylsulfamoyl)phenyl)-6-7-8-9-tetrahydro-1H-pyrrolo[3,2-h]-isoquinoline-2,3-dione-3-O-(3-(2-oxo)tetrahydrofuryl)oxime], the IC50 is 0.15 µM.
